Read-outs that look alike come from different tables or passages of the source.
Key:
[1] = system: 3T3-L1 mouse pre-adipocyte; assay: 3T3-L1 pre-adipocyte differentiation (adipogenesis) assay; format: cell-based; details: for adiponectin expression, compound added early: added Day 0 of differentiation; for adiponectin expression / adipogenesis, compound added later: added Day 2 of differentiation
Description: We cultured and differentiated mouse 3T3-L1 preadipocytes and primary fibroblasts isolated from 16-days old embryos using standard procedures (Green, et al., Cell 3:127-33 (1974)). After reaching confluence (DMEM, high glucose, 10% calf serum, Day 0), cells were differentiated (3-isobutyl-1-methylxanthine 0.5 mM, dexamethasone 1 μM, insulin 1.7 μM) for 48 h before media replacement every 48 h (DMEM, 10% FCS insulin, 1.7 μM) for 7 days.
Northern blotting was performed as before with HyBond (Amersham; Ziouzenkova, et al., Proc. Natl. Acad. Sci. USA 100:2730-5 (2003)).
(§1) We determined triglyceride content in lysed cells (RIPA buffer, complete protease inhibitor cocktail, Roche) using an enzymatic colorimetric assay (Wako, Japan) and adiponectin levels via ELISA (R&D, Minneapolis). For Western blotting, cell lysates, plasma, and tissue lysates underwent reducing gel separation (10% acrylamide) and hybridization with RXR (Santa Cruz, Calif.), mouse RBP4 (Alpco), or UCP1 (Chemicon) antibodies.
To test Rald effects on adipogenesis, we performed 3T3-L1 mouse pre-adipocyte differentiation assays in the presence of Rald concentrations similar to those found in fat in vivo. Rald levels as low as 100 nM suppressed mRNA expression of the adipogenic target genes CD36, adiponectin, and aP2. These repressive effects of Rald were evident in a concentration-dependent manner in either the presence or absence of the PPARγ agonist BRL49653 (BRL), a potent adipogenic stimulus.

Human full-length PPARγ2 = target: T1, Human full-length PPARγ2 (Homo sapiens, UniProt P37231); assay: Scintillation proximity assay / cell-free radioligand displacement; format: binding
T1 sequence (P37231 1-505): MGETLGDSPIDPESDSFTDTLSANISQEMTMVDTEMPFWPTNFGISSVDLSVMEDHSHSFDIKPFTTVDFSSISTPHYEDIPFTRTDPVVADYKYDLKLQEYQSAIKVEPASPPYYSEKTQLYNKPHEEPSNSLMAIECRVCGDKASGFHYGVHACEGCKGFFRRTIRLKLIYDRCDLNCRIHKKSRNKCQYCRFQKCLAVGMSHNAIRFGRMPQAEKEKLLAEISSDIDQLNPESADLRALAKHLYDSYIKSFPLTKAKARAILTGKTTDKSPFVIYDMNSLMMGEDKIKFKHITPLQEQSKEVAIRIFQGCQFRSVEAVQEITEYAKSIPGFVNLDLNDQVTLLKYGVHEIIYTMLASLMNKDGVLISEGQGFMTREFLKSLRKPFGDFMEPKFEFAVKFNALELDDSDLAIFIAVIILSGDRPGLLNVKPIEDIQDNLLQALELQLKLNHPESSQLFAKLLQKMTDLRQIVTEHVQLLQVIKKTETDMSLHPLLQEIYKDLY
Description: Scintillation proximity assays were performed on our behalf.
(§2) Given these effects of Rald on RXR-LBD activation, we next tested if Rald could inhibit activation of a transfected canonical PPAR response element (PPRE) luciferase construct after RXR and/or PPARγ transfection and respective agonist stimulation (9-cis RA or BRL). […] Similar effects were evident in cell-based PPARγ-LBD assays in the presence of BRL. Thus, Rald suppresses adipogenic gene expression, adipocyte lipid accumulation, RXRα and PPARγ-LBD activation, as well as PPRE responses, all at concentrations (<1 μM) that overlap levels present in rodent fat in vivo. Importantly, these Rald effects diverge from the responses seen to RA.

RXRα-LBD = target: T2, RXRα-LBD (Homo sapiens, UniProt P19793); assay: LBD-GAL4 transfection assay, RXRα-LBD; format: cell-based
T2 construct: expressed in transfected cells; host or cells: NIH 3T3 cells
T2 sequence (P19793 227-458 limits assumed): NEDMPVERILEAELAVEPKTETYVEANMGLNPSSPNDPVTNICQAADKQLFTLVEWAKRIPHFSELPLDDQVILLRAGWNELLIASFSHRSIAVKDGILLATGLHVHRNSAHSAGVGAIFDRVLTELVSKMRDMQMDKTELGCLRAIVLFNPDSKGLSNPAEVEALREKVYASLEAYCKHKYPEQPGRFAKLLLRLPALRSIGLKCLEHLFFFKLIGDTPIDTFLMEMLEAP
Excerpt: (§3) Transient transfection of NIH 3T3 cells (2.3×10^4 cells, 24-well plates) with PCMX-β-galactosidase and LBD/yeast Gal 4/luciferase constructs used Fugene (Roche) as before (Ziouzenkova, et al., Proc. Natl. Acad. Sci. USA 100:2730-5 (2003)). For siRNA transfections, 3T3-L1 cells (90% confluence, antibiotic-free DMEM, 10% CS, 24-well plates) received control (sequences C, D) or specific siRXRα and siRXRβ sequences (Santa Cruz) using Lipofectamine 2000/OptiMEM medium (Invitrogen) and media supplemented with 10% FBS 5 h post-transfection. Western blotting evaluated RXR levels post-transfection (48 h). After transfection (48 h), we induced differentiation before analysis after 7 days.
(§4) Given Rald's suppression of PPARγ agonist-stimulated adipogenesis and adiponectin release, we tested if Rald altered activation of RAR and RXR, and if it did so in a way distinct from other retinoids. Ligand binding domain (LBD)-GAL4 transfection assays were performed in 3T3-NIH fibroblasts in the presence or absence of known specific nuclear receptor agonists and/or Rald. […] Rald alone had no effect on RXRα-LBD activation. […] Thus, Rald plays a distinct, independent role from RA in RXRα-LBD regulation, suppressing ligand-mediated activation.

ob/ob mice = assay: ob/ob mice, intraperitoneal administration, 3 weeks; format: in vivo, mouse; details: for percentage of subcutaneous fat relative to total body fat / RBP4 plasma levels as compared to vehicle: retinoids 500 nM
Excerpt: The Standing Committee On Animals at Harvard Medical School approved all protocols.
MRI data (1 mm slices) obtained on a Bruker Avance 500 wide bore spectrometer (11.7 T; 500 MHz for proton) fitted with a gradient amplifier and a 30 mm “birdcage” transmitter/receiver coil was processed with Paravision™ software. Spin Echo parameters included TI weighted images: TE=15 ms and TR=300 ms, matrix=256, FOV=30 mm; RARE images: TE=51 ms, TR=2500 ms, matrix=256, FOV=30 mm. Abdominal fat measurements used axial slices (n=8) at the level of the left renal pelvis.
After acclimation to powdered high fat diet (4 d), food/water intake, oxygen consumption, and carbon dioxide production were measured in metabolic cages (Ancare, Charles River Laboratories). Calculated metabolic rate (Weir equation) was expressed per g body weight. We performed insulin (ITT) and glucose tolerance tests (GTT) after food deprivation (16 h) using intraperitoneal insulin injection (ITT, 0.1 U/ml 0.005 ml/g body weight) or single 25% dextrose (GTT, 0.004 mL/g body weight) administration and glucometer measurements (Accu-Chek Advantage, Roche).
After 3 weeks, subcutaneous fat mass was quantified by magnetic resonance imaging (MRI).

[2] = system: RXRα/RXRβ siRNA-treated 3T3-L1 adipocytes; assay: 3T3-L1 adipogenesis assay after RXRα/RXRβ siRNA; format: cell-based, mouse; details: RXRα/RXRβ siRNA 48 hours, differentiation 7 days
Excerpt: as §3, §1
To evaluate Rald effects in an RXR loss of function model, 3T3-L1 adipogenesis assays in the presence of Rald were repeated but after first decreasing RXRα and RXRβ levels using siRNA to each RXR isotype. […]

[3] = system: PPAR response element (PPRE); assay: PPRE luciferase construct after RXR and/or PPARγ transfection; format: cell-based
Excerpt: as §3, §2

[4] = system: preadipocytes isolated from human visceral fat depots; assay: Adipogenesis in preadipocytes from human visceral fat; format: cell-based
RARα-LBD = target: T3, RARα-LBD (Homo sapiens, UniProt P10276); assay: LBD-GAL4 transfection assay, RARα-LBD; format: cell-based
T3 construct: expressed in transfected cells; host or cells: NIH 3T3 cells
T3 sequence (P10276 183-417 limits assumed): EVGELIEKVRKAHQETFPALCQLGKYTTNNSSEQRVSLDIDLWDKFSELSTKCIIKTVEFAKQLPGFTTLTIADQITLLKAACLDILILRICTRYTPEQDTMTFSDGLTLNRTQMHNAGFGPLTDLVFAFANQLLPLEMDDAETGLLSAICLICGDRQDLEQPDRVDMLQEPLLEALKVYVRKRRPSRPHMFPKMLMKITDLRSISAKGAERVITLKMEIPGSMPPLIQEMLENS
Excerpt: as §3, §4

PPARγ-LBD = target: T4, PPARγ-LBD (Homo sapiens, UniProt P37231); assay: Cell-based PPARγ-LBD assay; details: presence of BRL; concentrations <1 μM
T4 construct: expressed in transfected cells; host or cells: NIH 3T3 cells
T4 sequence (P37231 238-503 limits assumed): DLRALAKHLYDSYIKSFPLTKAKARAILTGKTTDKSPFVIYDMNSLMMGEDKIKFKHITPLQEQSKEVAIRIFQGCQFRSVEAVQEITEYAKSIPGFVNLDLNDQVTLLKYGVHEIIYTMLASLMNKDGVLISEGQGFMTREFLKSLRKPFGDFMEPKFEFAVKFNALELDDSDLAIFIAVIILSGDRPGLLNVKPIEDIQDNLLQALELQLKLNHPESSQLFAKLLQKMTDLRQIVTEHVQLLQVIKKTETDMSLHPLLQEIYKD
Excerpt: as §3, §2

rats = details: cited from earlier work
[5] = cell-free radioligand displacement, read-out: Kd, displacement of high affinity PPARγ agonists
[6] = summary statement, unit inferred, read-out: Kd, receptor binding
[7] = MRI after 3 weeks, i.p., citral 10 μM

## CC1=C(/C=C/C(C)=C\C=C\C(C)=C\C(=O)O)C(C)(C)CCC1 [9-cis RA, reference compound]
[1]
  adiponectin expression, compound added early: inhibited
  adiponectin expression / adipogenesis, compound added later: no effect

## CC1=C(/C=C/C(C)=C\C=C\C(C)=C\C=O)C(C)(C)CCC1 [9-cis Rald]
Human full-length PPARγ2; [5]
  Kd: 5.9 ± 0.7 µM
Human full-length PPARγ2; [6]
  Kd: 5.9 ± 0.7 µM

## CC1=C(/C=C/C(C)=C/C=C/C(C)=C/C=O)C(C)(C)CCC1 [13-cis Rald]
Human full-length PPARγ2; [5]
  Kd: 9.7 ± 1.2 µM
Human full-length PPARγ2; [6]
  Kd: 9.7 ± 1.2 µM

## CN(CCOc1ccc(CC2SC(=O)NC2=O)cc1)c1ccccn1 (stereo not drawn) [BRL, rosiglitazone, reference compound]
[1]
  adiponectin levels induced by BRL stimulation: six-fold increase

## CC1=C(/C=C/C(C)=C/C=C/C(C)=C/C=O)C(C)(C)CCC1 [Rald, retinaldehyde]
RXRα-LBD; compound alone
  RXRα-LBD activation: no effect
RXRα-LBD; in presence of 9-cis RA
  RXRα-LBD activation by 9-cis RA: significantly inhibited
ob/ob mice; MRI after 3 weeks, i.p. 500 nM
  subcutaneous fat: significantly less subcutaneous fat
ob/ob mice; [7]
  percentage of subcutaneous fat relative to total body fat: 15.5±0.6%
ob/ob mice; i.p., Rald 500 nM, citral 10 μM
  glucose tolerance: improved
ob/ob mice; i.p., citral 10 μM
  RBP4 plasma levels as compared to vehicle: significantly suppressed
[2]
  adiponectin secretion after siRNA exposure: no additional effects
  triglyceride accumulation after siRNA exposure: further decreased
[3]; PPARγ and RXR co-transfection and PPARγ agonist stimulation
  inhibition of PPRE activation: 60%
[3]; RXR and/or PPARγ transfection
  PPRE activation by both agonists (9-cis RA or BRL): significantly inhibited
[4]
  adipogenesis: repressed
RARα-LBD; compound alone, 3T3-NIH fibroblasts
  RARα-LBD activation: weakly activated
RARα-LBD; in presence of 9-cis RA
  RARα-LBD activation by 9-cis RA: did not alter
[1]
  adiponectin levels induced by BRL stimulation: mitigated
  adiponectin expression, compound added early: inhibited
  adiponectin expression / adipogenesis, compound added later: also inhibited adipogenesis
[1]; Rald levels as low as 100 nM, presence or absence of BRL
  mRNA expression of adipogenic target genes CD36, adiponectin, aP2: suppressed
[1]; absence and presence of BRL
  lipid accumulation: decreased
[1]; stimulation early or late, concentration-dependent
  adiponectin secretion: decreased
Human full-length PPARγ2; [6]
  Kd: 11.9 ± 1.9 µM
PPARγ-LBD
  PPARγ-LBD activation: suppresses

## CC1=C(/C=C/C(C)=C/C=C/C(C)=C/C(=O)O)C(C)(C)CCC1 [all-trans RA, Retinoic acid, reference compound]
ob/ob mice; [7]
  percentage of subcutaneous fat relative to total body fat: 19.1±1.6%
ob/ob mice; i.p., citral 10 μM
  RBP4 plasma levels as compared to vehicle: no effect
[1]
  adiponectin expression / adipogenesis, compound added later: no effect

## CC(C)=CCCC(C)=CC=O [citral, 3,7-dimethyl-2,6-octadienal]
ob/ob mice; i.p., citral 10 μM
  RBP4 plasma levels as compared to vehicle: significantly suppressed
rats; high doses, rats
  tolerability: well tolerated
rats; rats fed a diet with citral
  body weight versus citral free diet: weighed less

## CC1=C(/C=C/C(C)=C/C=C/C(C)=C/CO)C(C)(C)CCC1 [vitamin A, retinol, reference compound]
ob/ob mice; [7]
  percentage of subcutaneous fat relative to total body fat: 17.3±1.3%
ob/ob mice; i.p., citral 10 μM
  RBP4 plasma levels as compared to vehicle: increased RBP4 plasma levels two-fold

Source: US9078852B2, “Retinaldehyde in the treatment of obesity, diabetes and other conditions” (The Brigham and Women's Hospital, Inc., priority 2008, dated 2015)
